Source: ChEMBL document CHEMBL3885861, “Open TG-GATES”

Species on record: Rattus norvegicus
Experiment: Open TG-GATES - Regimen: Single
Assay type: toxicity, organism-based, Sprague-Dawley
Parameters: regimen Single, gender Male, age 6 weeks
Conditions: in vivo, po, 15 mg/kg, route gavage; for TC / TP / gamma-GTP / ALP / ALT / AST / BUN / CRE / Ca / Cl / DBIL / GLC / IP / K / LDH / Na / PL / RALB / TBIL: tissue Plasma; for APTT / Bas / Eos / Fbg / Hb / Ht / Lym / MCH / MCHC / MCV / Mono / Neu / PT / Plat / RBC / Ret / WBC: tissue Blood; for KIDNEY_L / KIDNEY_R / KIDNEY_TOTAL: tissue Kidney; for LIVER: tissue Liver

`O=P1(N(CCCl)CCCl)NCCCO1` (stereo not given) [CYCLOPHOSPHAMIDE ANHYDROUS] was tested, and the TC (3 h, dose level Low) was 68.6 mg/dL, the TP (3 h, dose level Low) was 5.2 g/dL and the gamma-GTP (3 h, dose level Low) was 1.2 IU/L. For the same compound, the TERMINAL_BW (6 h, dose level High) was 193.9 g, the TERMINAL_BW (6 h, dose level Low) was 190.6 g and the APTT (6 h, dose level High) was 21.7 s. It also gave a Bas (6 h, dose level High) of 0%, an Eos (6 h, dose level High) of 0.6% and a Fbg (6 h, dose level High) of 313.4 mg/dL. For the same compound, the Hb (6 h, dose level High) was 13.3 g/dL, the Ht (6 h, dose level High) was 39.9% and the Lym (6 h, dose level High) was 79.4%. It also gave an MCH (6 h, dose level High) of 21.5 pg, an MCHC (6 h, dose level High) of 33.3% and an MCV (6 h, dose level High) of 64.8 fL. The Mono (6 h, dose level High) was 2.2%, the Neu (6 h, dose level High) was 17.4% and the PT (6 h, dose level High) was 15.6 s. For the same compound, the Plat (6 h, dose level High) was 122.7 x10_4/uL, the RBC (6 h, dose level High) was 616.8 x10_4/ul and the Ret (6 h, dose level High) was 9%. For the same compound, the WBC (6 h, dose level High) was 68.2 x10_2/uL, the APTT (6 h, dose level Low) was 20.3 s and the Eos (6 h, dose level Low) was 1.2%. The Fbg (6 h, dose level Low) was 302 mg/dL, the Hb (6 h, dose level Low) was 13 g/dL and the Ht (6 h, dose level Low) was 38.9%. It also gave a Lym (6 h, dose level Low) of 80.6%, an MCH (6 h, dose level Low) of 20.9 pg and an MCHC (6 h, dose level Low) of 33.4%. For the same compound, the MCV (6 h, dose level Low) was 62.4 fL, the Mono (6 h, dose level Low) was 2.4% and the Neu (6 h, dose level Low) was 15.8%. It also gave a PT (6 h, dose level Low) of 13.9 s, a Plat (6 h, dose level Low) of 115.7 x10_4/uL and an RBC (6 h, dose level Low) of 624 x10_4/ul. For the same compound, the Ret (6 h, dose level Low) was 8.9%, the WBC (6 h, dose level Low) was 71.4 x10_2/uL and the KIDNEY_L (6 h, dose level High) was 0.8 g. It also gave a KIDNEY_R (6 h, dose level High) of 0.9 g, a KIDNEY_TOTAL (6 h, dose level High) of 1.7 g and a KIDNEY_R (6 h, dose level Low) of 0.8 g. It also gave an LIVER (6 h, dose level High) of 8.4 g, an LIVER (6 h, dose level Low) of 7.6 g and an ALP (6 h, dose level High) of 1569.4 IU/L. For the same compound, the ALT (6 h, dose level High) was 39.2 IU/L, the AST (6 h, dose level High) was 74.8 IU/L and the BUN (6 h, dose level High) was 10.2 mg/dL. The CRE (6 h, dose level High) was 0.1 mg/dL, the Ca (6 h, dose level High) was 10.7 mg/dL and the Cl (6 h, dose level High) was 106.8 meq/L. For the same compound, the DBIL (6 h, dose level High) was 0 mg/dL, the GLC (6 h, dose level High) was 185.8 mg/dL and the IP (6 h, dose level High) was 10.4 mg/dL. The K (6 h, dose level High) was 4.5 meq/L, the LDH (6 h, dose level High) was 216.8 IU/L and the Na (6 h, dose level High) was 143.2 meq/L. It also gave a PL (6 h, dose level High) of 144 mg/dL, an RALB (6 h, dose level High) of 2.9 g/dL and a TBIL (6 h, dose level High) of 0.032 mg/dL. The TC (6 h, dose level High) was 81.8 mg/dL, the TP (6 h, dose level High) was 5.4 g/dL and the gamma-GTP (6 h, dose level High) was 1.2 IU/L. It also gave an ALP (6 h, dose level Low) of 1365.4 IU/L, an ALT (6 h, dose level Low) of 33.2 IU/L and an AST (6 h, dose level Low) of 70.4 IU/L. It also gave a BUN (6 h, dose level Low) of 8.4 mg/dL, a CRE (6 h, dose level Low) of 0.2 mg/dL and a Ca (6 h, dose level Low) of 10.9 mg/dL. The Cl (6 h, dose level Low) was 107 meq/L, the DBIL (6 h, dose level Low) was 0.014 mg/dL and the GLC (6 h, dose level Low) was 168.2 mg/dL. For the same compound, the IP (6 h, dose level Low) was 9 mg/dL, the K (6 h, dose level Low) was 4.3 meq/L and the LDH (6 h, dose level Low) was 83.8 IU/L. For the same compound, the Na (6 h, dose level Low) was 142 meq/L, the PL (6 h, dose level Low) was 141.6 mg/dL and the RALB (6 h, dose level Low) was 2.5 g/dL. It also gave a TBIL (6 h, dose level Low) of 0.072 mg/dL, a TC (6 h, dose level Low) of 79 mg/dL and a TP (6 h, dose level Low) of 5.3 g/dL. For the same compound, the TERMINAL_BW (9 h, dose level High) was 185.5 g, the TERMINAL_BW (9 h, dose level Low) was 184.1 g and the APTT (9 h, dose level High) was 20.7 s. It also gave a Bas (9 h, dose level High) of 0%, an Eos (9 h, dose level High) of 0.8% and a Fbg (9 h, dose level High) of 320.4 mg/dL. For the same compound, the Hb (9 h, dose level High) was 13.2 g/dL, the Ht (9 h, dose level High) was 39.3% and the Lym (9 h, dose level High) was 78%. It also gave an MCH (9 h, dose level High) of 21 pg, an MCHC (9 h, dose level High) of 33.6% and an MCV (9 h, dose level High) of 62.4 fL. It also gave a Mono (9 h, dose level High) of 2.2%, a Neu (9 h, dose level High) of 19% and a PT (9 h, dose level High) of 16.2 s. The Plat (9 h, dose level High) was 113.9 x10_4/uL, the RBC (9 h, dose level High) was 631 x10_4/ul and the Ret (9 h, dose level High) was 7.3%. It also gave a WBC (9 h, dose level High) of 57.8 x10_2/uL, an APTT (9 h, dose level Low) of 16.7 s and an Eos (9 h, dose level Low) of 1%. The Fbg (9 h, dose level Low) was 285.6 mg/dL, the Hb (9 h, dose level Low) was 12.7 g/dL and the Ht (9 h, dose level Low) was 37.6%. The Lym (9 h, dose level Low) was 75%, the MCH (9 h, dose level Low) was 20.8 pg and the MCHC (9 h, dose level Low) was 33.7%. For the same compound, the MCV (9 h, dose level Low) was 61.8 fL, the Neu (9 h, dose level Low) was 21.4% and the PT (9 h, dose level Low) was 14 s. For the same compound, the Plat (9 h, dose level Low) was 120.4 x10_4/uL, the RBC (9 h, dose level Low) was 608.4 x10_4/ul and the Ret (9 h, dose level Low) was 8.8%. It also gave a WBC (9 h, dose level Low) of 67.8 x10_2/uL, a KIDNEY_L (9 h, dose level High) of 0.8 g and a KIDNEY_R (9 h, dose level High) of 0.9 g. For the same compound, the KIDNEY_TOTAL (9 h, dose level High) was 1.7 g, the KIDNEY_R (9 h, dose level Low) was 0.8 g and the KIDNEY_TOTAL (9 h, dose level Low) was 1.6 g. For the same compound, the LIVER (9 h, dose level High) was 7.5 g, the LIVER (9 h, dose level Low) was 6.9 g and the ALP (9 h, dose level High) was 1487.4 IU/L. The ALT (9 h, dose level High) was 34.8 IU/L, the AST (9 h, dose level High) was 67.4 IU/L and the BUN (9 h, dose level High) was 9.2 mg/dL. It also gave a CRE (9 h, dose level High) of 0.2 mg/dL, a Ca (9 h, dose level High) of 10.5 mg/dL and a Cl (9 h, dose level High) of 107.4 meq/L. It also gave a DBIL (9 h, dose level High) of 0.002 mg/dL, a GLC (9 h, dose level High) of 186 mg/dL and an IP (9 h, dose level High) of 10.1 mg/dL. For the same compound, the K (9 h, dose level High) was 3.9 meq/L, the LDH (9 h, dose level High) was 185.4 IU/L and the Na (9 h, dose level High) was 143.4 meq/L. For the same compound, the PL (9 h, dose level High) was 123.8 mg/dL, the RALB (9 h, dose level High) was 3 g/dL and the TBIL (9 h, dose level High) was 0.032 mg/dL. The TC (9 h, dose level High) was 69.2 mg/dL and the TP (9 h, dose level High) was 5.4 g/dL.
